Measurements published in US20150305333A1, “USE OF GLUCOSAMINE AMIDES AS PLANT GROWTH AND YIELD ENHANCERS” (PIONEER HI-BRED INTERNATIONAL, INC., priority 2012, published 2015).

Key:
[1] = system: Spring barley (Hordeum vulgare); experiment: Spring barley field trial 2010: emergence, height, yield; format: in vivo; details: for Barley Yield: entire plot harvested
Protocol: A field trial was conducted to evaluate the effects of NPG on plant emergence, height, and yield in Spring barley (Hordeum vulgare) planted near Thorndale, Ontario, Canada, in 2010. Seed treatments included an Untreated Control, three concentrations of NPG, and three concentrations of a natural LCO. The natural LCO was provided by Dr. Don Smith (McGill University, Montreal, Canada) and prepared as described in Example 2. Aqueous solutions of NPG and LCO were applied at 10^−6 M, 10^−7 M and 10^−8M to barley seed using a spray nozzle and left to soak on a plastic sheet for 20 minutes. The seeds were beginning to emerge when they were planted on June 8th in a loam composed of 41% sand, 39% silt and 20% clay and 4.5% organic matter.
Barley was planted at a rate of 100 kg seed/ha to a depth of 2.5 cm. Weeds were controlled using 770 mL/ha 8.79 wt % fenoxprop-P-ethyl, and a mixture of 33.33 wt % thifensulfuron methyl and 16.67 wt % tribenuron methyl at a rate of 30 g/ha. Disease was controlled with 23.6 wt % pyraclostrobin at a rate of 0.4 L/ha. All of the products are industry standards and representative of what is used in commercial production.
The trial was conducted using a randomized complete block design with a plot size of 2 m by 8 m with a 17.8 cm row spacing, 3.3 cm plant spacing and four replications
Yield was determined by harvesting the entire plot and transforming the data to kg/ha (Table 10). Yields are not corrected for differences in emergence rates. […] It is noteworthy, however, that yield benefits may be difficult to accurately determine with the small plots used in this study.

[2] = system: spring wheat (Triticum aestivum); experiment: Spring wheat field trial 2011: emergence, vigor, tillering, biomass, yield; format: in vivo; details: for Spring Wheat Crop Vigor (1-5 scale): vigor scale of Example 3; for Spring Wheat Biomass: 82 DAP, aerial portion
Protocol: A field trial was conducted to evaluate the effects of NPG on plant emergence, vigor, tillering, biomass and yield in spring wheat (Triticum aestivum) planted near Breslau, Ontario, Canada, in 2011. Seed treatments included an Untreated Control, 10^−7 M NPG applied as a seed treatment, 10^−7 M NPG followed by two foliar NPG applications, 10^−6 M natural LCO, and 10^−6 M commercial LCO plus a commercial rhizobia inoculant (LCO+RI). The natural LCO was provided by Dr. Don Smith (McGill University, Montreal, Canada) and prepared as described in Example 2. Seed coating was performed by injecting 7 mL of aqueous NPG solution per 100 g wheat seed into a coating machine followed by treatment and drying. […] Seed designated for use as the Untreated Check also received the fungicide maintenance treatment.
Treated seeds were sent to the DuPont Breslau, Ontario Research Station and planted on June 8th in a loam composed of 34% sand, 48% silt and 18% clay and 2.9% organic matter. […] Spring wheat was planted at a rate of 100 kg seeds/ha to a depth of 3 cm. Weeds were controlled using 8.79 wt % fenoxyprop-P-ethyl at a rate of 770 mL/ha and a mixture of 33.33 wt % thifensulfuron methyl and 16.67 wt % tribenuron methyl at a rate of 30 g/ha. Disease was controlled using 23.6 wt % pyraclostrobin fungicide at a rate of 0.4 L/ha. All of the products used are considered industry standards and representative of what is used in commercial production.
The trial was conducted using a randomized complete block design with a plot size of 2.5 m by 8 m with 17.8 cm row spacing, 3.3 cm plant spacing and four replications.
Foliar NPG applications were performed 36 and 49 days after planting. The treatments were sprayed using a 4 nozzle hollow-cone boom and CO2 propellant at a speed of 4.5 km/h and 40 psi. The 36 day application utilized a mix size of 2.0 L and spray rate of 200 L/ha water volume. The 49 day application utilized a mix size of 3.0 L and spray rate of 300 L/ha water volume.
Plant Biomass was determined at 82 DAP by harvesting the entire aerial portion of the plants from each plot (Table 17). A non-statistically significant increase in biomass was determined for the NPG, LCO+RI, and LCO treatments compared to the Untreated Control.
Yield was determined by harvesting the entire 8 m of the plot and transforming the data to kg/ha (Table 18). Yields are not corrected for differences in emergence rates.

[3] = 10^−7M seed treatment + Foliar, 35 DAP

CCCCCCC=CCCCCCCCC(=O)NC1C(OC)OC(CO)C(O)C1O [NPG, Methyl 2-deoxy-2-N-(hexadece-9,10-cis-eneoyl)-β-D-glucopyranoside]
Barley Emergence ([1]; 10^−6M seed treatment, 7 DAP): 85a %
Barley Plant Height ([1]; 10^−6M seed treatment, 7 DAP): 5.8a cm
Barley Emergence ([1]; 10^−6M seed treatment, 15 DAP): 88ab %
Barley Plant Height ([1]; 10^−6M seed treatment, 15 DAP): 12ab cm
Barley Emergence ([1]; 10^−6M seed treatment, 43 DAP): 19a %
Barley Plant Height ([1]; 10^−6M seed treatment, 43 DAP): 71a cm
Barley Yield ([1]; 10^−6M seed treatment): 3184 Kg/Hectare
Barley Emergence ([1]; 10^−7M seed treatment, 7 DAP): 86a %
Barley Plant Height ([1]; 10^−7M seed treatment, 7 DAP): 5.5ab cm
Barley Emergence ([1]; 10^−7M seed treatment, 15 DAP): 91a %
Barley Plant Height ([1]; 10^−7M seed treatment, 15 DAP): 14a cm
Barley Emergence ([1]; 10^−7M seed treatment, 43 DAP): 30a %
Barley Plant Height ([1]; 10^−7M seed treatment, 43 DAP): 71a cm
Barley Yield ([1]; 10^−7M seed treatment): 2504 Kg/Hectare
Barley Emergence ([1]; 10^−8M seed treatment, 7 DAP): 83a %
Barley Plant Height ([1]; 10^−8M seed treatment, 7 DAP): 5.6a cm
Barley Emergence ([1]; 10^−8M seed treatment, 15 DAP): 86ab %
Barley Plant Height ([1]; 10^−8M seed treatment, 15 DAP): 13a cm
Barley Emergence ([1]; 10^−8M seed treatment, 43 DAP): 25a %
Barley Plant Height ([1]; 10^−8M seed treatment, 43 DAP): 72a cm
Barley Yield ([1]; 10^−8M seed treatment): 3043 Kg/Hectare
Spring Wheat Yield ([2]; 10^−7M seed treatment): 1100a kg/ha
Spring Wheat Yield ([2]; 10^−7M seed treatment + Foliar): 1188a kg/ha
Wheat Crop Emergence ([2]; 10^−7M seed treatment + Foliar, 13 DAP): 53a %
Spring Wheat Tillering [2, 3]: 8.0a tillers/plant
Wheat Crop Emergence [2, 3]: 100a %
Spring Wheat Crop Vigor (1-5 scale) [2, 3]: 3.6a
Spring Wheat Crop Vigor (1-5 scale) ([2]; 10^−7M seed treatment + Foliar, 40 DAP): 3.5b
Spring Wheat Crop Vigor (1-5 scale) ([2]; 10^−7M seed treatment + Foliar, 52 DAP): 3.5a
Spring Wheat Biomass ([2]; 10^−7M seed treatment + Foliar): 0.198a kg/plant
Wheat Crop Emergence ([2]; 10^−7M seed treatment, 13 DAP): 53a %
Spring Wheat Tillering ([2]; 10^−7M seed treatment, 35 DAP): 9.0a tillers/plant
Wheat Crop Emergence ([2]; 10^−7M seed treatment, 35 DAP): 100a %
Spring Wheat Crop Vigor (1-5 scale) ([2]; 10^−7M seed treatment, 35 DAP): 3.4a
Spring Wheat Crop Vigor (1-5 scale) ([2]; 10^−7M seed treatment, 40 DAP): 3.5b
Spring Wheat Crop Vigor (1-5 scale) ([2]; 10^−7M seed treatment, 52 DAP): 3.4a
Spring Wheat Biomass ([2]; 10^−7M seed treatment): 0.190a kg/plant
